Reference: patent US10618914B2 (UNIVERSITY OF PITTSBURGH—OF THE COMMONWEALTH SYSTEM OF …, priority 2015, dated 2020)
Several values for one entry are separate records, joined by “and”; a condition that tells them apart may be missing. Equal values may be shown once. Read-outs that look alike come from different tables or passages of the source.

Key:
[1] = test system: Cal33 cells; assay: Cal33 growth inhibition; assay type: cell-based; settings: for GI50: Table 5, * average of 2 experiments
[2] = test system: STAT3; assay: HCS STAT3 assay; assay type: cell-based
[3] = Homo sapiens, CAL-33, Table 1, read-out: Growth Inhibition Cal33 (mean IC50)
[4] = Table 2, read-out: STAT3 (IC50)
[5] = Table 2, read-out: Cal33 (IC50)
[6] = FIG. 3, read-out: STAT3 potency (IC50)
[7] = Table 1, read-out: STAT3 (mean IC50)
[8] = Homo sapiens, CAL-33, Table 2, read-out: Cal33 (IC50)

| SMILES | IC50 [2, 4] | IC50 [1, 5] | also measured |
| --- | --- | --- | --- |
| COc1ccc(C2=Nn3c(nnc3-c3[nH]nc4c3CCC4)SC2)cc1 | – | – | IC50 [1, 3]: 0.15 µM |
| CC1Sc2nnc(-c3cc(-c4ccc(F)cc4)n[nH]3)n2N=C1c1ccccc1 (racemic) [compound 10135] | 3.8 µM | 33.4 µM | – |
| CC1Sc2nnc(-c3[nH]nc4c3CCC4)n2N=C1c1ccccc1 (racemic) [compound 10173] | 18.2 µM | 41.8 µM | – |
| CC1Sc2nnc(-c3cc(-c4ccc(Cl)cc4)n[nH]3)n2N=C1c1ccccc1 (racemic) [compound 10174] | 5.7 µM | 35.5 µM | – |
| COc1ccc(C2=Nn3c(nnc3-c3cc(-c4ccc(Cl)cc4)n[nH]3)SC2C)cc1 (racemic) [compound 10205] | – | 2.1 µM and 2 µM | – |
| COc1ccc(C2=Nn3c(nnc3-c3cc(-c4ccc(Cl)cc4)n[nH]3)SC2C)cc1 (stereo not drawn) [Cmpd 24] | – | – | GI50 [1]: 2.2 ± 0.3 µM |
| COc1ccc(C2=Nn3c(nnc3-c3cc(-c4ccccc4)n[nH]3)SC2CCN)cc1 (stereo not drawn) [Cmpd 30] | – | – | GI50 [1]: 2.5 µM |
| COCCC1Sc2nnc(-c3cc(-c4ccccc4)n[nH]3)n2N=C1c1ccc(OC)cc1 (stereo not drawn) [Cmpd 31] | – | – | GI50 [1]: 0.04 µM |
| COc1ccc(C2=Nn3c(nnc3-c3[nH]nc4c3CCCC4)SC2)cc1 [UPCDC10073] | – | – | IC50 [2, 7]: 17 µM; IC50 [1, 3]: 0.2 µM |
| Clc1ccc(C2=Nn3c(nnc3-c3[nH]nc4c3CCCC4)SC2)cc1 [UPCDC10084] | – | – | IC50 [2, 7]: 21.3 µM; IC50 [1, 3]: 0.6 µM |
| c1ccc2c(C3=Nn4c(nnc4-c4[nH]nc5c4CCC5)SC3)c[nH]c2c1 [UPCDC10115] | – | – | IC50 [2, 7]: 38 µM; IC50 [1, 3]: 0.21 µM |
| COc1ccc(C2=Nn3c(nnc3-c3[nH]nc4c3CCC4)SC2C)cc1 (stereo not drawn) [UPCDC10262] | 8.8 µM | – | IC50 [2, 7]: 8.78 µM; IC50 [1, 3]: 0.18 µM; IC50 [1, 8]: 0.18 µM |
| CC1Sc2nnc(-c3[nH]nc4c3CCC4)n2N=C1c1ccc(Cl)cc1 (stereo not drawn) [UPCDC10281] | 7.21 µM | – | IC50 [2, 7]: 7.21 µM; IC50 [1, 3]: 0.44 µM; IC50 [1, 8]: 0.44 µM |
| COc1ccc(C2=Nn3c(nnc3-c3[nH]nc4c3CCC4)SC2CC(C)C)cc1 (stereo not drawn) [UPCDC10305] | 5.1 µM | – | IC50 [2, 6]: < 10 µM; IC50 [2, 7]: 5.14 µM; IC50 [1, 3]: 0.47 µM; IC50 [1, 8]: 0.47 µM |
| COc1ccc(C2=Nn3c(nnc3-c3[nH]nc4c3CCC4)SC2C(C)C)cc1 (stereo not drawn) [UPCDC10318] | – | – | IC50 [1, 3]: 0.4 µM; IC50 [1, 8]: 0.4 µM |
| COc1ccc(C2=Nn3c(nnc3C(C)C)SC2C)cc1 (stereo not drawn) [UPCDC10332] | – | – | IC50 [2, 7]: 14.3 µM; IC50 [1, 3]: 0.16 µM |
| COc1ccc(C2=Nn3c(nnc3-c3ccccc3)SC2C)cc1 (stereo not drawn) [UPCDC10352] | 27.6 µM | – | IC50 [2, 7]: 27.6 µM; IC50 [1, 3]: 0.21 µM; IC50 [1, 8]: 0.21 µM |
| Clc1ccc(C2=Nn3c(nnc3-c3[nH]nc4c3CCC4)SC2)cc1 [UPCDC87346005] | – | – | IC50 [1, 3]: 0.77 µM |
| CC1Sc2nnc(-c3cc(-c4ccccc4)n[nH]3)n2N=C1c1ccccc1 (stereo not drawn) [compound 10131] | 3 µM | 26.3 µM | – |
| CC1Sc2nnc(-c3cc(-c4ccccc4)n[nH]3)n2N=C1c1ccccc1 (stereo not drawn) [compound 10260] | 4.8 µM | 42.7 µM | – |
| CC1Sc2nnc(-c3cc(-c4ccccc4)n[nH]3)n2N=C1c1ccccc1 (stereo not drawn) [compound 10261] | 12.3 µM | 40 µM | – |
| COc1ccc(C2=Nn3c(nnc3-c3cc(-c4ccccc4)n[nH]3)SC2CC(C)C)cc1 (stereo not drawn) [compound 10307] | – | 11.5 µM | – |
| COc1ccc(C2=Nn3c(nnc3-c3cc(-c4ccccc4)n[nH]3)SC2CCN)cc1 (stereo not drawn) [compound 10371] | – | 24.1 µM | – |

Further lines, with some results ahead:

| IC50 [2, 4] | SMILES | IC50 [1, 5] | also measured |
| --- | --- | --- | --- |
| 22.4 µM | CC1Sc2nnc(-c3[nH]nc4c3CCCC4)n2N=C1c1ccccc1 (racemic) [compound 10175] | 40.2 µM | – |
| 4.2 µM | COc1ccc(C2=Nn3c(nnc3-c3cc(-c4ccc(F)cc4)n[nH]3)SC2C)cc1 (racemic) [compound 10204] | 33 µM | – |
| 27.7 µM | CC1Sc2nnc(-c3[nH]nc4c3CCC4)n2N=C1c1ccc(F)cc1 (racemic) [compound 10282] | 31.3 µM | – |
| 26.5 µM | c1ccc(C2=Nn3c(nnc3-c3[nH]nc4c3CCC4)SC2c2ccccc2)cc1 (racemic) [compound 10298] | 1.1 µM | – |
| 4.4 µM | CC(C)C1Sc2nnc(-c3[nH]nc4c3CCC4)n2N=C1c1ccc(Cl)c(Cl)c1 (racemic) [compound 10299] | 8.2 µM | IC50 [2, 6]: < 10 µM |
| 27.1 µM | CC(C)CC1Sc2nnc(-c3[nH]nc4c3CCC4)n2N=C1c1ccc(Cl)c(Cl)c1 (racemic) [compound 10304] | 3.5 µM | – |
| 8.5 µM and 11 µM | CC1Sc2nnc(-c3[nH]nc4c3CCC4)n2N=C1c1ccc(Cl)c(Cl)c1 (stereo not drawn) [compound 10263, 6-(3,4-Dichlorophenyl)-7-methyl-3-(2,4,5,6-tetrahydrocyclopenta[c]pyrazol-3-yl)-7H-[1,2,4]triazolo[3,4-b][1,3,4]thiadiazine] | – | – |
| 45.6 µM | CC1(C)Sc2nnc(-c3cc(-c4ccccc4)n[nH]3)n2N=C1c1ccccc1 [compound 10264] | 50 µM | – |
| 38.2 µM | CC1(C)Sc2nnc(-c3cc(-c4ccc(Cl)cc4)n[nH]3)n2N=C1c1ccccc1 [compound 10268] | 50 µM | – |
| 18.6 µM | CC1(C)Sc2nnc(-c3[nH]nc4c3CCC4)n2N=C1c1ccc(Cl)c(Cl)c1 [compound 10283] | 50 µM | – |
| 7.5 µM | Clc1ccc(C2=Nn3c(nnc3-c3[nH]nc4c3CCC4)SC2Cc2ccccc2)cc1Cl (stereo not drawn) [compound 10308] | 3.3 µM | IC50 [2, 6]: < 10 µM |
| 22.6 µM | Clc1ccc(C2=Nn3c(nnc3-c3cc(-c4ccccc4)n[nH]3)SC2Cc2ccccc2)cc1Cl (stereo not drawn) [compound 10309] | – | – |
| 21.6 µM | COc1ccc(C2=Nn3c(nnc3-c3cc(-c4ccccc4)n[nH]3)SC2C(C)C)cc1 (stereo not drawn) [compound 10319] | 20 µM | – |
| 19.5 µM | COc1ccc(C2=Nn3c(nnc3-c3[nH]nc4c3CCC4)SC2Cc2ccccc2)cc1 (stereo not drawn) [compound 10320] | 0.83 µM | – |
| 5.8 µM | COc1ccc(C2=Nn3c(nnc3-c3cc(-c4ccccc4)n[nH]3)SC2Cc2ccccc2)cc1 (stereo not drawn) [compound 10321] | – | – |
| 33.2 µM | COCCC1Sc2nnc(-c3cc(-c4ccc(Cl)cc4)n[nH]3)n2N=C1c1ccc(OC)cc1 (stereo not drawn) [compound 10373] | 4.8 µM | – |

| IC50 [2, 4] | SMILES | IC50 [1, 5] | also measured |
| --- | --- | --- | --- |
| 8.5 µM | COCCC1Sc2nnc(-c3cc(-c4ccc(F)cc4)n[nH]3)n2N=C1c1ccc(OC)cc1 (stereo not drawn) [compound 10374] | 14.4 µM | – |
| 8.8 µM | CCN(CC)CCC1Sc2nnc(-c3cc(-c4ccccc4)n[nH]3)n2N=C1c1ccc(OC)cc1 (stereo not drawn) [compound 10380] | 3.7 µM | IC50 [2, 6]: < 10 µM |
| 31.2 µM | COc1ccc(C2=Nn3c(nnc3-c3[nH]nc4c3CCC4)SC2CCN)cc1 (stereo not drawn) [compound 10383] | 2.5 µM | – |
| 49.2 µM | COc1ccc(C2=Nn3c(nnc3-c3[nH]nc4c3CCC4)SC2CCO)cc1 (stereo not drawn) [compound 10403] | 0.93 µM | – |
| 37.3 µM | O=C(CC1Sc2nnc(-c3cc(-c4ccccc4)n[nH]3)n2N=C1c1ccccc1)N1CCCC1 (stereo not drawn) [compound 10410] | 43.5 µM | – |
| 11.1 µM | O=C(CC1Sc2nnc(-c3cc(-c4ccc(Cl)cc4)n[nH]3)n2N=C1c1ccccc1)N1CCCC1 (stereo not drawn) [compound 10411] | 21.6 µM | – |
| 46.1 µM | COc1ccc(C2=Nn3c(nnc3-c3nn(C)c4c3CCC4)SC2C)cc1 (stereo not drawn) [compound 10420] | 0.38 µM | – |
| 37.1 µM | COc1ccc(C2=Nn3c(nnc3-c3nn(C(C)=O)c4c3CCC4)SC2C)cc1 (stereo not drawn) [compound 10421] | 0.26 µM | – |
| 34.7 µM | COc1ccc(C2=Nn3c(nnc3-c3nn(C(=O)OC(C)(C)C)c4c3CCC4)SC2C)cc1 (stereo not drawn) [compound 10422] | 0.38 µM | – |
| 17.9 µM | COC(=O)CC1Sc2nnc(-c3cc(-c4ccccc4)n[nH]3)n2N=C1c1ccccc1 (stereo not drawn) [compound 10423] | 37.9 µM | – |
| 9.9 µM | COc1ccc(C2=Nn3c(nnc3-c3cc(-c4ccccc4)n[nH]3)SC2CC(=O)N(C)C)cc1 (stereo not drawn) [compound 10425] | 29.3 µM | IC50 [2, 6]: < 10 µM |
| 9.1 µM | COc1ccc(C2=Nn3c(nnc3-c3cc(-c4ccccc4)n[nH]3)SC2CC(=O)N2CCCC2)cc1 (stereo not drawn) [compound 10426] | 20.5 µM | IC50 [2, 6]: < 10 µM |
| 11.6 µM | COC(=O)CC1Sc2nnc(-c3cc(-c4ccccc4)n[nH]3)n2N=C1c1ccc(OC)cc1 (stereo not drawn) [compound 10427] | 34.5 µM | – |
| 33.9 µM | COc1ccc(C2=Nn3c(nnc3-c3[nH]nc4c3CSC4)SC2C)cc1 (stereo not drawn) [compound 10435] | 0.63 µM | – |
| 25.3 µM | COC(=O)Cn1nc(-c2nnc3n2N=C(c2ccc(OC)cc2)C(C)S3)c2c1CCC2 (stereo not drawn) [compound 10437] | 2.8 µM | – |
